Measured values published in patent publication US6103720A, “Ketobenzamides as calpain inhibitors” (BASF Aktiengesellschaft, priority 1996, dated 2000).

Columns and labels:
Human μ-calpain = target: T1, Human μ-calpain (Homo sapiens, UniProt P07384); assay: Calpain I test (Ki, fluorogenic substrate Suc-Leu-Tyr-AMC); type: biochemical; conditions: human μ-calpain from erythrocytes, reversible inhibition
T1 construct: Human μ-calpain is isolated from erythrocytes; from tissue; host or cells: human erythrocytes (purified on DEAE Sepharose, phenyl Sepharose, Superdex 200 and Blue Sepharose)
T1 sequence (P07384 1-714): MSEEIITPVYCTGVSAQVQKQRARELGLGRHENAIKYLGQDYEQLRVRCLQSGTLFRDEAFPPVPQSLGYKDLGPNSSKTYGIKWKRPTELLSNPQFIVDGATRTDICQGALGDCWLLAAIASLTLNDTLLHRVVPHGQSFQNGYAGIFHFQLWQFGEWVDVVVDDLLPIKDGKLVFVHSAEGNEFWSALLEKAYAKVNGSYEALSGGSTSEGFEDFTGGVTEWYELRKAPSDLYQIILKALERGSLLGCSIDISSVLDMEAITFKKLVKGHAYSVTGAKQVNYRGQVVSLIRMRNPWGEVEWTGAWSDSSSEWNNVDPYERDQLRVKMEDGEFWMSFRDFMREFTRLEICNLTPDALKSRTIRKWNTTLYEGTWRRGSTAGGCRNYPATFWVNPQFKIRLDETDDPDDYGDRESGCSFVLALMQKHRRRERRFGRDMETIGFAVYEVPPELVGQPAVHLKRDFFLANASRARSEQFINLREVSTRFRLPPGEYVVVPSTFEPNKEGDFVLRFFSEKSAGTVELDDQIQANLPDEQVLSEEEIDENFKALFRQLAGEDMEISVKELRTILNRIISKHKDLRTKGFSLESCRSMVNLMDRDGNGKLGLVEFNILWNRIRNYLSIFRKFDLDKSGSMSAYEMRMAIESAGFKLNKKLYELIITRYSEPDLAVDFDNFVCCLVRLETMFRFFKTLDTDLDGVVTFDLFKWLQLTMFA
T1 sequence (P04632 1-268 partner): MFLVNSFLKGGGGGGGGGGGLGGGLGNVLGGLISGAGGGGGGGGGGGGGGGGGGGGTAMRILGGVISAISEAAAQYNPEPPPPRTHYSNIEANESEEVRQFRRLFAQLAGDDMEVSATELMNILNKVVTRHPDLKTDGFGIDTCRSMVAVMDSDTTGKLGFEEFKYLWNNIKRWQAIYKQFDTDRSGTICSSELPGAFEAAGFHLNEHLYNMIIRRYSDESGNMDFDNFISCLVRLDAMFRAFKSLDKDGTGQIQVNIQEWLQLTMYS
Protocol: Calpain I and Calpain II Test
The inhibitory properties of calpain inhibitors are tested in buffer containing 50 mM tris-HCl, pH 7.5; 0.1 M NaCl; 1 mM dithiotreithol [sic]: 0.11 mM CaCl2, using the fluorogenic calpain substrate Suc-Leu-Tyr-AMC (25 mM, dissolved in DMSO, Bachem/Switzerland) (Sasaki et al. J. Biol. Chem. 1984, Vol. 259, 12489-12494). Human μ-calpain is isolated from erythrocytes following the methods of Croall and DeMartino (BBA 1984, Vol. 788, 348-355) and Graybill et al. (Bioorg. & Med. Lett. 1995, Vol. 5, 387-392). After several chromatographic steps (DEAE Sepharose, phenyl Sepharose, Superdex 200 and Blue Sepharose), the enzyme is obtained at a purity of […], as assessed by SDS-PAGE, Western blot analysis and N-terminal sequencing. The fluorescence of the cleavage product 7-amino-4-methylcoumarin (AMC) is followed in a Spex-Fluorolog fluorimeter at λex =380 nm and λem =460 nm. […]
In a typical experimental mixture, 10 μl of substrate (250 μm final concentration) and then 10 μl of μ-calpain (2 μg/ml final concentration, ie. 18 nM) are added to a 1 ml cuvette which contains buffer. The calpain-mediated cleavage of the substrate is measured for from 15 to 20 min. […] Ki values are determined using the customary equation for reversible inhibition, ie. […]

calpain = conditions: M. R. Angelastro et al., J. Med. Chem. 1990,33, 11-13; cited from earlier work

Compound	Ki (Human μ-calpain) [µM]	inhibitor of calpain (in words) (calpain)
(S)-N-(1-Ethoxycarbonyl-1-oxo-3-phenylpropan-2-yl)-2-phenylbenzamide [Example 24]	< 10	
COC(=O)C(=O)C(Cc1ccccc1)NC(=O)c1ccccc1 (centres unmarked) [Ph-CONH--CH(CH2 Ph)--CO--COOCH3]		weak inhibitor
